The source of these data is article PMC8262356, “SLC26A6-selective inhibitor identified in a small-molecule screen blocks fluid absorption in small intestine” (JCI Insight, 2021).

Assay [1] has as its target T1, PAT1 (murine slc26a6) (Mus musculus, UniProt Q8CIW6).
T1 construct: host or cells: Fischer rat thyroid (FRT) cells, lentiviral transduction (pLVX-IRES-mCherry-slc26a6), clonal line FRT-YFP-slc26a6
T1 sequence (Q8CIW6 24-758 limits assumed): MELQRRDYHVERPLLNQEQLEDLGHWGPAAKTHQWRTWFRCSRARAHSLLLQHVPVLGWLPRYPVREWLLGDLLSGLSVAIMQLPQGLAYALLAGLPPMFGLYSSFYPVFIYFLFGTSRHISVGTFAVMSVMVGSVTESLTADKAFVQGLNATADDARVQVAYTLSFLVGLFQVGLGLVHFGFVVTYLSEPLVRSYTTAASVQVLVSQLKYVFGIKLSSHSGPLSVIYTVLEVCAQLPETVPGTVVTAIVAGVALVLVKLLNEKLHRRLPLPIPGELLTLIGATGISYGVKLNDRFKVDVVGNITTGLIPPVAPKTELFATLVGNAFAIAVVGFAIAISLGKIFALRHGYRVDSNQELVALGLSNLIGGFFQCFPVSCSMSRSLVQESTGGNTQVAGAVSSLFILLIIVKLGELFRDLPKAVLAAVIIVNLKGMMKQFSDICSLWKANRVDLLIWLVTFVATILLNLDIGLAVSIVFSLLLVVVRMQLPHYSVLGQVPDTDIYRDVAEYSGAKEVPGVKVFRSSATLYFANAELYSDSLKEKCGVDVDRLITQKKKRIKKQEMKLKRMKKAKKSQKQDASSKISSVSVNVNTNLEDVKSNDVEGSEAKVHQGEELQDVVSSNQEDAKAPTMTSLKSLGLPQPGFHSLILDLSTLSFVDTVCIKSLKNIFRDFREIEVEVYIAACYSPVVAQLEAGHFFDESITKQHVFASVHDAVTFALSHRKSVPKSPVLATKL
The assay can be described thus: PAT1-mediated Cl-/I- exchange, YFP fluorescence quenching in FRT cells. Format: cell-based. As to conditions: for effect on PAT1-mediated Cl-/I- exchange: 100 μM agonist. Here is the method:
A small-molecule screen was developed to identify PAT1 inhibitors utilizing transfected FRT cells expressing PAT1 (murine slc26a6) together with a halide-sensing cytoplasmic YFP (Figure 1A). Adherent cells in a 96-well format were subjected to an inward gradient of I^– to drive exchange of I^– for Cl^– and consequent quenching of the YFP fluorescence signal.
A collection of approximately 50,000 diverse, drug-like synthetic small molecules (ChemDiv) was screened at a concentration of 25 μM using a Beckman Coulter BioMek FX liquid handling platform with FLUOstar OMEGA plate readers (BMG Labtech). FRT-YFP-slc26a6 cells were plated in 96-well black-walled, clear-bottom plates (Corning Life Sciences) at a density of 20,000 cells/well and cultured for 48 hours until confluent. Cells were washed twice in PBS and incubated for 10 minutes prior to assay in 100 μl PBS containing test compounds. For assay of slc26a6 function, baseline cellular fluorescence was measured for 2 seconds, after which 100 μl NaI-substituted PBS (140 mM NaCl replaced by 140 mM NaI) was added by syringe pump to drive Cl^–/I^– exchange. The initial rate of Cl^–/I^– exchange was determined by single exponential regression of the fluorescence time course. All assay plates contained wells with negative (1% DMSO) and positive (500 μM niflumic acid) controls. For structure-activity relationship studies, analogs of active compounds were purchased from ChemDiv.

For assay [2], the system named is mouse midjejunal closed loops. The arrangement: method as in PMID 30046015. As to conditions: 10 μM; cited from earlier work.
Assay [3] has as its system mouse midjejunal closed loops. The experiment in a line: Closed midjejunal loop fluid absorption. Format: in vivo. The following applies: 10 μM luminal, 30 minutes. Here is the method: For fluid absorption studies in small intestine, mice were given free access to 5% dextrose in water but not solid food for 24 hours before experiments. Closed midjejunal and ileal loops were prepared and isolated as described previously ([29]). Mice were anesthetized with isoflurane, and body temperature was maintained during surgery at 36°C–38°C using a heating pad. A small abdominal incision was made to expose small intestine for isolation of 3–4 closed small intestinal loops (jejunum or ileum, length 2–3 cm) with sutures. Loops were injected with 100 μL PBS (pH 7.4, 137 mM NaCl, 2.7 mM KCl, 8 mM Na2HPO4, 1.8 mM KH2PO4, 1 mM CaCl2, 0.5 mM MgCl2) containing 30 μM PAT1inh-B01, 10 μM DRAinh-A270, or 10 μM tenapanor (MedChemExpress) (or vehicle, 0.1% DMSO in PBS). In some experiments, 30 μM PAT1inh-B01 and 10 μM DRAinh-A270 were used together. In some experiments to rule out effects of sodium-dependent phosphate transport, the loop lumen contained HEPES-buffered saline (pH 7.4, 137 mM NaCl, 4.5 mM KCl, 10 mM HEPES, 1 mM CaCl2, 0.5 mM MgCl2). […] Intestinal loops were removed at 0 and 30 minutes (in separate mice), and loop length and weight were measured to quantify fluid absorption. […] In some experiments, loop fluid was emptied with a syringe, and pH was measured immediately using AB15 pH meter after brief centrifugation at 2000 g for 5 minutes at 4°C.

In assay [4] the test system is mouse ileal closed loops. The experiment in a line: Closed ileal loop fluid absorption. Format: in vivo. The following applies: 10 μM luminal, 30 minutes, PBS. Here is the method: (§1) For fluid absorption studies in small intestine, mice were given free access to 5% dextrose in water but not solid food for 24 hours before experiments. Closed midjejunal and ileal loops were prepared and isolated as described previously ([29]). Mice were anesthetized with isoflurane, and body temperature was maintained during surgery at 36°C–38°C using a heating pad. A small abdominal incision was made to expose small intestine for isolation of 3–4 closed small intestinal loops (jejunum or ileum, length 2–3 cm) with sutures. Loops were injected with 100 μL PBS (pH 7.4, 137 mM NaCl, 2.7 mM KCl, 8 mM Na2HPO4, 1.8 mM KH2PO4, 1 mM CaCl2, 0.5 mM MgCl2) containing 30 μM PAT1inh-B01, 10 μM DRAinh-A270, or 10 μM tenapanor (MedChemExpress) (or vehicle, 0.1% DMSO in PBS). In some experiments, 30 μM PAT1inh-B01 and 10 μM DRAinh-A270 were used together. In some experiments to rule out effects of sodium-dependent phosphate transport, the loop lumen contained HEPES-buffered saline (pH 7.4, 137 mM NaCl, 4.5 mM KCl, 10 mM HEPES, 1 mM CaCl2, 0.5 mM MgCl2). The abdominal incision was closed with sutures, and mice were allowed to recover from anesthesia. Intestinal loops were removed at 0 and 30 minutes (in separate mice), and loop length and weight were measured to quantify fluid absorption. In parallel experiments, CF mice were used and loop studies were done as described above. In some experiments, loop fluid was emptied with a syringe, and pH was measured immediately using AB15 pH meter after brief centrifugation at 2000 g for 5 minutes at 4°C.

For assay [5], the system named is mouse distal colonic closed loops. The assay can be described thus: Closed distal colonic loop fluid absorption. In kind it is in vivo. The following applies: 10 μM luminal. How it is done:
For fluid absorption studies in colon, mice were given free access to 5% dextrose in water but not solid food for 48 hours. Mice were treated with 500 μL mineral oil twice a day rectally (final dose 16 h before surgery) during this period to evacuate the colon. Closed distal colonic loops (length 1.5–2 cm, 1 loop per mouse) were isolated as described previously ([7]). Loops were injected with 100 μL PBS with 30 μM PAT1inh-B01, 10 μM DRAinh-A270, or 10 μM tenapanor (or vehicle). In some experiments, 30 μM PAT1inh-B01 and 10 μM DRAinh-A270 were used together. Colonic loops were removed at 0 and 60 minutes (in separate mice), and loop length and weight were measured to quantify fluid absorption.

The test system of assay [6] is ileal closed loops in cystic fibrosis (CF) mice (homozygous F508del). The assay can be described thus: Closed ileal loop fluid absorption in CF mice. Format: in vivo, mouse. As to conditions: 10 μM luminal. Here is the method: as §1
For assay [7], the system named is loperamide-induced constipation in mice. The assay can be described thus: Loperamide model of constipation. In kind it is in vivo, mouse. The following applies: 10 mg/kg, oral, stool collected over 3 hours. How it is done:
Wild-type CD1 mice were administered loperamide (0.3 mg/kg, intraperitoneally) in PBS containing 5% ethanol (0.1 mg/mL final concentration) to induce constipation ([9], [30]). PAT1inh-B01 and DRAinh-A270, individually or together (10 mg/kg each, in saline containing 5% DMSO and 10% Kolliphor HS 15), or vehicle control were administered by oral gavage 1 hour before loperamide. After loperamide injection mice were placed individually in metabolic cages with free access to food and water. Stool samples were collected for 3 hours, and total stool weight and number of fecal pellets were quantified. To measure stool water content, stool samples were dried at 80°C for 24 hours and water content was calculated as follows: (wet weight – dry weight)/wet weight ([9], [30]).

Assay [8] relates to DRA. The assay can be described thus: DRA inhibition potency comparison. As to conditions: vs DRAinh-A250.

SMILES strings stand for the structures. pIC50: −log10 of the molar value.

For `Nc1nc2c(nc(Br)n2[C@@H]2O[C@@H]3COP(=O)(O)O[C@H]3[C@H]2O)c(=O)[nH]1` [8-Br-cGMP, reference compound], the “effect on PAT1-mediated Cl-/I- exchange” value in assay [1] was “did not significantly affect”.

`Cc1c(CC(=O)O)c(=O)oc2c(C)c(OCc3cccc(Br)c3)ccc12` [DRAinh-A250]: the “effect on fluid absorption in closed midjejunal loops” value in assay [2] was “did not significantly affect”.

On to `Cc1c(CC(=O)O)c(=O)oc2c(C)c(OCc3cccc(I)c3)ccc12` [DRAinh-A270], for which the “inhibition of fluid absorption (decrease in loop weight-to-length ratio)” value in assay [3] was “approximately 50%”. For the same compound, the “effect on ileal fluid absorption (loop weight-to-length ratio)” value in assay [4] is on record as “did not inhibit”. Besides, the “effect on colonic fluid absorption (loop weight-to-length ratio)” value in assay [5] is “completely prevented”. Moreover, the “effect on fluid absorption from ilea of CF mice” value in assay [6] is recorded as “no effect”. Also, in assay [7], the “effect on number of pellets” value is listed as “increased”, the “effect on stool water content” value is given as “normalized” and the “effect on stool weight” value is given as “increased”. Besides, the “potency as DRA inhibitor relative to DRAinh-A250” value in assay [8] was found to be 5 fold.

Regarding `Nc1ncnc2c1ncn2[C@@H]1O[C@H](COP(=O)(O)OP(=O)(O)OP(=O)(O)O)[C@@H](O)[C@H]1O` [ATP, reference compound], the “effect on PAT1-mediated Cl-/I- exchange” value in assay [1] was “did not significantly affect”.

Consider `CN1Cc2c(Cl)cc(Cl)cc2[C@H](c2cccc(S(=O)(=O)NCCOCCOCCNC(=O)NCCCCNC(=O)NCCOCCOCCNS(=O)(=O)c3cccc([C@@H]4CN(C)Cc5c(Cl)cc(Cl)cc54)c3)c2)C1` [tenapanor], for which the “inhibition of fluid absorption (decrease in loop weight-to-length ratio)” value in assay [3] is on record as “comparable”. Further, the “effect on ileal fluid absorption (loop weight-to-length ratio)” value in assay [4] was “comparable”. Also, in assay [5], the “effect on colonic fluid absorption (loop weight-to-length ratio)” value is “did not inhibit”. In addition, the “effect on fluid absorption from ilea of CF mice” value in assay [6] is listed as “completely blocked”.

For `O=C(O)c1cccnc1Nc1cccc(C(F)(F)F)c1` [niflumic acid, reference compound], the pIC50 in assay [1] (FRT cells expressing PAT1 and YFP, read-out: IC50, inhibition of PAT1-mediated Cl-/I- exchange) is 3.70.
